The subject of one data set is HBV. As to the kind of experiment: Determination of HBV DNA from the supernatants of HepAD38 cells (anti-HBV activity). The format is cell-based, hepatitis B virus. To be noted: Hepatitis B virus, 144 h; HBV DNA in HepAD38 supernatant, day 6, qPCR; read-out: Cell Activity (EC50). The procedure: Determination of HBV DNA from the Supernatants of HepAD38 Cells
The anti-HBV activity was analysed in the stable transfected cell line HepAD38, which has been described to secrete high levels of HBV virion particles (Ladner et al., 1997). In brief, HepAD38 cells were cultured at 37° C. at 5% CO2 and 95% humidity in 200 μl maintenance medium, which was Dulbecco's modified Eagle's medium/Nutrient Mixture F-12 (Gibco, Karlsruhe), 10% fetal bovine serum (PAN Biotech Aidenbach) supplemented with 50 μg/ml penicillin/streptomycin (Gibco, Karlsruhe), 2 mM L-glutamine (PAN Biotech, Aidenbach), 400 μg/ml G418 (AppliChem, Darmstadt) and 0.3 μg/ml tetracycline. Cells were subcultured once a week in a 1:5 ratio, but were usually not passaged more than ten times. For the assay 60,000 cells were seeded in maintenance medium without any tetracycline into each well of a 96-well plate and treated with serial half-log dilutions of test compound. To minimize edge effects the outer 36 wells of the plate were not used but were filled with assay medium. On each assay plate six wells for the virus control (untreated HepAD38 cells) and six wells for the cell control (HepAD38 cells treated with 0.3 μg/ml tetracycline) were allocated, respectively. In addition, one plate set with reference inhibitors like BAY 41-4109, entecavir, and lamivudine instead of screening compounds were prepared in each experiment. In general, experiments were performed thrice in triplicates. At day 6 HBV DNA from 100 μl filtrated cell culture supernatant (AcroPrep Advance 96 Filter Plate, […] Supor membran, PALL GmbH, Dreieich) was automatically purified on the MagNa Pure LC instrument using the MagNA Pure 96 DNA and Viral NA Small Volume Kit (Roche Diagnostics, Mannheim) according to the instructions of the manufacturer. EC50 values were calculated from relative copy numbers of HBV DNA In brief, 5 μl of the 100 μl eluate containing HBV DNA were subjected to PCR LC480 Probes Master Kit (Roche) together with 1 μM antisense primer […], 0.5 μM sense primer […], 0.3 μM hybprobes […]-FL and LC640-[…]-PH (TIBMoBiol, Berlin) to a final volume of 12.5 μl. The PCR was performed on the Light Cycler 480 real time system (Roche Diagnostics, Mannheim) using the following protocol: Pre-incubation for 1 min at 95° C., amplification: 40 cycles×(10 sec at 95° C., 50 sec at 60° C., 1 sec at 70° C.), cooling for 10 sec at 40° C. Viral load was quantitated against known standards using HBV plasmid DNA of pCH-9/3091 (Nassal et al., 1990, Cell 63: 1357-1363) and the LightCycler 480 SW 1.5 software (Roche Diagnostics, Mannheim) and EC50 values were calculated using non-linear regression with GraphPad Prism 6 (GraphPad Software Inc., La Jolla, USA).

Data set [1] is described as follows: Cell viability assay (AlamarBlue) in HepAD38 cells. The note with it: human.

For 24 compounds, EC50 and CC50 results are on record in patent publication US11236087B2, “Highly active pyrazolo-piperidine substituted indole-2-carboxamides active against the hepatitis B virus (HBV)” (AiCuris GmbH & Co. KG, priority 2017, dated 2022).

Some results are limits rather than exact numbers.

With `N[C@@H]1CCN(C(=O)c2[nH]nc3c2CN(C(=O)c2cc4ccccc4[nH]2)CC3)C1` [Example 259, (3R)-1-[5-(1H-indole-2-carbonyl)-2H,4H,5H,6H,7H-pyrazolo[4,3-c]pyridine-3-carbonyl]pyrrolidin-3-amine], in the data set on HBV, the EC50 lay within 1 to 25 µM. In data set [1], this compound yielded a CC50 at 6 days greater than 10 µM.
`CN(CCC(=O)O)C(=O)CCN(C)C(=O)c1[nH]nc2c1CN(C(=O)c1cc3ccccc3[nH]1)CC2` [Example 275, 3-(3-{1-[5-(1H-indole-2-carbonyl)-2H,4H,5H,6H,7H-pyrazolo[4,3-c]pyridin-3-yl]-N-methylformamido}-N-methylpropanamido)propanoic acid]: the EC50 in the data set on HBV fell in the range of 1 to 25 µM. In data set [1], this compound showed a 50% cytotoxic concentration (CC50) at 6 days greater than 10 µM.
The matching figures for `CO/N=C(/c1n[nH]c2c1CN(C(=O)c1cc3ccccc3[nH]1)CC2)C1CC1` [Example 288, (E)-{cyclopropyl[5-(1H-indole-2-carbonyl)-1H,4H,5H,6H,7H-pyrazolo[4,3-c]pyridin-3-yl]methylidene}(methoxy)amine]: 1 to 25 µM and greater than 10 µM.
The matching figures for `CO/N=C(\c1n[nH]c2c1CN(C(=O)c1cc3ccccc3[nH]1)CC2)C1CC1` [Example 289, (Z)-{cyclopropyl[5-(1H-indole-2-carbonyl)-1H,4H,5H,6H,7H-pyrazolo[4,3-c]pyridin-3-yl]methylidene}(methoxy)amine]: 1 to 25 µM and greater than 10 µM.
For `O=C(c1cc2ccccc2[nH]1)N1CCc2[nH]nc(C(=O)N(C3CCOCC3)C3CC3)c2C1` [Example 293, N-cyclopropyl-5-(1H-indole-2-carbonyl)-N-(oxan-4-yl)-1H,4H,5H,6H,7H-pyrazolo[4,3-c]pyridine-3-carboxamide], the EC50 in the data set with HBV is less than 100 µM. The compound further showed a CC50 at 6 days in data set [1] greater than 10 µM.
With `CN(C(=O)c1[nH]nc2c1CN(C(=O)c1cc3cccc(F)c3[nH]1)CC2)C1CC1` [Example 319, N-cyclopropyl-5-(7-fluoro-1H-indole-2-carbonyl)-N-methyl-2H,4H,5H,6H,7H-pyrazolo[4,3-c]pyridine-3-carboxamide], the EC50 in the data set with HBV was less than 1 µM. For the same compound, in data set [1], the CC50 at 6 days is greater than 10 µM.
As to `CN(C(=O)c1[nH]nc2c1CN(C(=O)c1cc3ccc(F)cc3[nH]1)CC2)C1CC1` [Example 320, N-cyclopropyl-5-(6-fluoro-1H-indole-2-carbonyl)-N-methyl-2H,4H,5H,6H,7H-pyrazolo[4,3-c]pyridine-3-carboxamide], the EC50 in the data set with HBV is less than 1 µM. This compound gave a CC50 at 6 days in data set [1] greater than 10 µM.
Turning to `CN(C(=O)c1[nH]nc2c1CN(C(=O)c1cc3cc(F)ccc3[nH]1)CC2)C1CC1` [Example 321, N-cyclopropyl-5-(5-fluoro-1H-indole-2-carbonyl)-N-methyl-2H,4H,5H,6H,7H-pyrazolo[4,3-c]pyridine-3-carboxamide], the EC50 in the data set with HBV is less than 1 µM. The compound also came in with a CC50 at 6 days in data set [1] greater than 10 µM.
Take `O=C(c1cc2c(Cl)cc(F)cc2[nH]1)N1CCc2[nH]nc(C34CC(C3)C4)c2C1` [Example 335, 2-(3-{bicyclo[1.1.1]pentan-1-yl}-1H,4H,5H,6H,7H-pyrazolo[4,3-c]pyridine-5-carbonyl)-4-chloro-6-fluoro-1H-indole]: the EC50 with HBV was less than 1 µM. Besides, the CC50 at 6 days in data set [1] was greater than 10 µM.
As for `O=C(c1cc2c(Cl)cccc2[nH]1)N1CCc2n[nH]c(C3CCC3)c2C1` [Example 387, 4-chloro-2-{3-cyclobutyl-2H,4H,5H,6H,7H-pyrazolo[4,3-c]pyridine-5-carbonyl}-1H-indole], the EC50 with HBV is less than 1 µM. The cytotoxic concentration (CC50) at 6 days in data set [1] was greater than 10 µM.
For the compound `O=C(c1cc2c(F)cc(F)cc2[nH]1)N1CCc2n[nH]c(C3CCC3)c2C1` [Example 388, 2-{3-cyclobutyl-2H,4H,5H,6H,7H-pyrazolo[4,3-c]pyridine-5-carbonyl}-4,6-difluoro-1H-indole], the concentration for a half-maximal effect (EC50) in the data set with HBV was less than 1 µM. The same compound showed a CC50 at 6 days in data set [1] greater than 10 µM.
Take `O=C(c1cc2ccc(F)c(F)c2[nH]1)N1CCc2n[nH]c(C3CCC3)c2C1` [Example 389, 2-{3-cyclobutyl-2H,4H,5H,6H,7H-pyrazolo[4,3-c]pyridine-5-carbonyl}-6,7-difluoro-1H-indole]: in the data set on HBV, the EC50 is less than 1 µM. The compound further had a CC50 at 6 days in data set [1] greater than 10 µM.
Turning to `O=C(c1cc2cc(F)c(F)cc2[nH]1)N1CCc2n[nH]c(C3CCC3)c2C1` [Example 390, 2-{3-cyclobutyl-2H,4H,5H,6H,7H-pyrazolo[4,3-c]pyridine-5-carbonyl}-5,6-difluoro-1H-indole], the EC50 in the data set on HBV was less than 1 µM. Further, the CC50 at 6 days in data set [1] is greater than 10 µM.
Regarding `O=C(c1cc2c(F)c(F)ccc2[nH]1)N1CCc2n[nH]c(C3CCC3)c2C1` [Example 391, 2-{3-cyclobutyl-2H,4H,5H,6H,7H-pyrazolo[4,3-c]pyridine-5-carbonyl}-4,5-difluoro-1H-indole], the EC50 in the data set with HBV was less than 1 µM. The same compound displayed a CC50 at 6 days in data set [1] greater than 10 µM.
As to `O=C(c1cc2cccc(F)c2[nH]1)N1CCc2n[nH]c(C3CCC3)c2C1` [Example 392, 2-{3-cyclobutyl-2H,4H,5H,6H,7H-pyrazolo[4,3-c]pyridine-5-carbonyl}-7-fluoro-1H-indole], the EC50 in the data set on HBV is less than 1 µM. The CC50 at 6 days in data set [1] was greater than 10 µM.
As to `O=C(c1cc2ccc(F)cc2[nH]1)N1CCc2n[nH]c(C3CCC3)c2C1` [Example 393, 2-{3-cyclobutyl-2H,4H,5H,6H,7H-pyrazolo[4,3-c]pyridine-5-carbonyl}-6-fluoro-1H-indole], the EC50 in the data set on HBV is less than 1 µM. Further, the CC50 at 6 days in data set [1] is greater than 10 µM.
In the case of `O=C(c1cc2cc(F)ccc2[nH]1)N1CCc2n[nH]c(C3CCC3)c2C1` [Example 394, 2-{3-cyclobutyl-2H,4H,5H,6H,7H-pyrazolo[4,3-c]pyridine-5-carbonyl}-5-fluoro-1H-indole], in the data set with HBV, the EC50 was less than 1 µM. Besides, the CC50 at 6 days in data set [1] is greater than 10 µM.
For the compound `CCOCC1(N(C)C(=O)c2[nH]nc3c2CN(C(=O)c2cc4ccc(F)cc4[nH]2)CC3)CC1` [Example 395, N-[1-(ethoxymethyl)cyclopropyl]-5-(6-fluoro-1H-indole-2-carbonyl)-N-methyl-2H,4H,5H,6H,7H-pyrazolo[4,3-c]pyridine-3-carboxamide], the EC50 in the data set on HBV was less than 1 µM. The compound also displayed a CC50 at 6 days in data set [1] greater than 10 µM.
Regarding `O=C(c1cc2c(F)ccc(F)c2[nH]1)N1CCc2[nH]nc(C3CCC3)c2C1` [Example 396, 2-{3-cyclobutyl-1H,4H,5H,6H,7H-pyrazolo[4,3-c]pyridine-5-carbonyl}-4,7-difluoro-1H-indole], the EC50 in the data set with HBV is less than 1 µM. In data set [1], this compound yielded a CC50 at 6 days greater than 10 µM.
Consider `O=C(c1cc2c(F)cccc2[nH]1)N1CCc2n[nH]c(C3CCC3)c2C1` [Example 397, 2-{3-cyclobutyl-2H,4H,5H,6H,7H-pyrazolo[4,3-c]pyridine-5-carbonyl}-4-fluoro-1H-indole], for which the 50% effective concentration (EC50) in the data set with HBV is less than 1 µM. The same compound showed a CC50 at 6 days in data set [1] greater than 10 µM.
As to `Cc1noc(C2(N(C)C(=O)c3[nH]nc4c3CN(C(=O)c3cc5ccccc5[nH]3)CC4)CC2)n1` [Example 398, 5-(1H-indole-2-carbonyl)-N-methyl-N-[1-(3-methyl-1,2,4-oxadiazol-5-yl)cyclopropyl]-2H,4H,5H,6H,7H-pyrazolo[4,3-c]pyridine-3-carboxamide], the EC50 with HBV is less than 1 µM. The CC50 at 6 days in data set [1] was greater than 10 µM.
On to `CC(F)(F)c1cc(F)cc2[nH]c(C(=O)N3CCc4n[nH]c(C5CCC5)c4C3)cc12` [Example 399, 2-{3-cyclobutyl-2H,4H,5H,6H,7H-pyrazolo[4,3-c]pyridine-5-carbonyl}-4-(1,1-difluoroethyl)-6-fluoro-1H-indole], for which, in the data set on HBV, the EC50 was less than 1 µM. The compound also showed a cytotoxic concentration (CC50) at 6 days in data set [1] greater than 10 µM.
In the case of `O=C(c1cc2c(C(F)F)cc(F)cc2[nH]1)N1CCc2n[nH]c(C3CCC3)c2C1` [Example 400, 2-{3-cyclobutyl-2H,4H,5H,6H,7H-pyrazolo[4,3-c]pyridine-5-carbonyl}-4-(difluoromethyl)-6-fluoro-1H-indole], the EC50 in the data set with HBV is less than 1 µM. In data set [1], this compound showed a CC50 at 6 days greater than 10 µM.
The matching figures for `O=C(c1cc2ccccc2[nH]1)N1CCc2n[nH]c(C(=O)N3CC(F)(F)CC34CC4)c2C1` [Example 401, 2-(3-{6,6-difluoro-4-azaspiro[2.4]heptane-4-carbonyl}-2H,4H,5H,6H,7H-pyrazolo[4,3-c]pyridine-5-carbonyl)-1H-indole]: less than 1 µM and greater than 10 µM.
